Assays:
telomerase = assay: Telomerase reaction carried out first, then PCR of the diluted reaction solution, gel electrophoresis, with or without λDNA; format: biochemical; conditions: final concentrations 0.1 to 10 μM
Procedure: (§1) Moreover, effects of inhibiting telomerase by TMPyP and anionic phthalocyanines were compared in Comparative Example 3 and Example 4 to 5 below. In these experiments, the S7700 kit was used similarly to the aforementioned Comparative Examples 1 to 2 and Examples 1 to 3. However, in Comparative Examples 1 to 2 and Examples 1 to 3 described above, the reagents required only for the telomerase reaction and PCR were all mixed first, and the telomerase reaction and PCR were carried out sequentially by regulating the reaction temperature. To the contrary, in the following Comparative Example 3 and Examples 4 to 5, only the reagents required for the telomerase reaction were first mixed to carry out a telomerase reaction, and a part of the reaction solution and the reagents required for the PCR were mixed to carry out the PCR.
In addition, in each of the following Comparative Example 3 and Examples 4 to 5, experiments were carried out with or without addition of a λDNA in the telomerase reaction. Addition of the λDNA was intended to reproduce for mimicking the conditions in which a large amount of double-stranded DNAs are present as in the case of genomic DNAs in cells, and to study the effects of inhibiting telomerase by TMPyP or anionic phthalocyanines even under conditions more approximate to those in vivo, by adding a λDNA.
Telomerase reaction solution in a total volume of 10 μL were prepared by mixing 1 μL of 10× TRAP Reaction buffer, 0.2 μL of 50× dNTP Mix, 0.2 μL of TS primer, 4 μL of the telomerase solution prepared in Comparative Example 1, 2 μL of the TMPyP aqueous solution, and 2.6 μL of milliQ water (the reaction solutions having final TMPyP concentrations of 0 M, 0.1 μM, 0.3 μM, 1 μM, 3 μM and 10 μM were prepared, respectively). Then, the reaction solutions were stood under a condition of 30° C. for 60 min to allow a telomerase reaction to be carried out.
(§2) Next, 4 μL of a solution prepared by diluting the solution after the telomerase reaction 20 times with milliQ water, 0.2 μL of 50× dNTP Mix, 0.2 μL of TS primer, 0.2 μL of Primer Mix, 0.1 μL of TaKaLa LA Taq Hot Start Version (manufactured by Takara Bio Inc.), 1 μL of 10× LA PCR buffer II (Mg^2+ plus) (buffer solution included in TaKaLa LA Taq Hot Start Version), and 4.3 μL of milliQ water were mixed to prepare a PCR solution in a total volume of 10 μL. Then, PCR was carried out by allowing this PCR solution to stand under temperature conditions in which a thermo cycle of: 30 sec at 95° C.; 30 sec at 59° C.; and 30 sec at 72° C. was repeated 30 times.
(§3) Finally, the solution after the PCR was electrophoresed on a 10% polyacrylamide gel, and stained with GelStar Nucleic Acid Stain (manufactured by Takara Bio Inc.). […] In the order from the leftmost lane, the results with final concentrations of TMPyP being 0 M, 0.1 μM, 0.3 μM, 1 μM, 3 μM and 10 μM are shown.
On the other hand, experiments in which a λDNA was added to the telomerase reaction solution were also carried out. More specifically, in preparing the telomerase reaction solution described above, 2.6 μL of a λDNA solution (manufactured by Takara Bio Inc.) was mixed in place of mixing 2.6 μL of milliQ water. Other telomerase reaction temperature/time schedule, PCR solution preparation condition, PCR temperature/time schedule, electrophoresis condition were just the same.

[1] = system: TaKaLa LA Taq Hot Start Version (polymerase reaction); assay: PCR control band in the separate telomerase reaction / PCR experiment; format: biochemical; conditions: 10 μM, no addition of λDNA
Procedure: as §1, §2, §3

Chain of telomerase (O14746 whole entry): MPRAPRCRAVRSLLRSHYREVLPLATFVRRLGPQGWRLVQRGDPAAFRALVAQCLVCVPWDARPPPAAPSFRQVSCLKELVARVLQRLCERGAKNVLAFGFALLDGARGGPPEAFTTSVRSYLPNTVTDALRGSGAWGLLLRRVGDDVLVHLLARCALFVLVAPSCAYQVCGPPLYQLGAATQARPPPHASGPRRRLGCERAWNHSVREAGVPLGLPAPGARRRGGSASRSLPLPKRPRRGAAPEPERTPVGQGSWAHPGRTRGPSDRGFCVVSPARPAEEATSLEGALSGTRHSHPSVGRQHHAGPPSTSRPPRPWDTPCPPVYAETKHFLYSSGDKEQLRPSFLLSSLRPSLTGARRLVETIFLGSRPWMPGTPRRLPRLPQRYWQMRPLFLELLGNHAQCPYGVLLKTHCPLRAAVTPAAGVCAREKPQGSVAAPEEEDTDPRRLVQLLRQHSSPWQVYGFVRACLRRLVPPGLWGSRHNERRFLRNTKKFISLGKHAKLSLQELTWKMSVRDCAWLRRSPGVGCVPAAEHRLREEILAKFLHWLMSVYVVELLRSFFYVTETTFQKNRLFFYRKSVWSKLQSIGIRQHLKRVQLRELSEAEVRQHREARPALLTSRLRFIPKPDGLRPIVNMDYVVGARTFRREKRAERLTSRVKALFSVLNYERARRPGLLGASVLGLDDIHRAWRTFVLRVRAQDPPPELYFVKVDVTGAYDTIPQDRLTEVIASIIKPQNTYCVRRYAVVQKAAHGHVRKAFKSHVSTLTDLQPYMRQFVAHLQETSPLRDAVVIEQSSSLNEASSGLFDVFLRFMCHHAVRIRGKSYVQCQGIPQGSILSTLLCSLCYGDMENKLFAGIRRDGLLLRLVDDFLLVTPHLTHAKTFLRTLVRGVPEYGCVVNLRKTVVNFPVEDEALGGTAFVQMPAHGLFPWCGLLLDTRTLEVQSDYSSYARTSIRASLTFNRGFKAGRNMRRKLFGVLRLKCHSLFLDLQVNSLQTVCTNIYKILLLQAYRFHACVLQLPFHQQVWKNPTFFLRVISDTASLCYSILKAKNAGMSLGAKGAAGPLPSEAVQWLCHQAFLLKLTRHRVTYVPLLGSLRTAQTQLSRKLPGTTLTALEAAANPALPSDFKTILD

Substance	inhibition of the telomerase reaction (band of telomerase reaction product) (telomerase; in the presence of λDNA)	inhibition of the telomerase reaction (band of telomerase reaction product) (telomerase; no addition of λDNA)	amplification of the PCR control (band) [1]
Copper(II) phthalocyanine-3,4′,4″,4′″-tetrasulfonic acid tetrasodium salt [CuPC]	can efficiently inhibit the telomerase reaction	inhibited with higher concentration	not inhibited
Nickel(II) phthalocyanine tetrasulfonic acid tetrasodium salt [NiPC]	can efficiently inhibit the telomerase reaction	inhibited with higher concentration	not inhibited

From patent US20100261246A1, “METHOD FOR INHIBITING TELOMERASE REACTION” (PANASONIC CORPORATION, priority 2009, published 2010)
